Experimental data from patent US4248887A, “Antibacterial compounds, processes for their preparation and compositions containing them” (priority 1978, dated 1981).
Converted amounts (≈) assume the structure as drawn. Where two headings read alike, the source gives them in different places.

Tests used:
M. fermentans MWKL4 = assay: Anti-mycoplasma MIC; assay type: cell-based; conditions: Mycoplasmopsis fermentans, read-out: MIC
[1] = system: Staph. aureus B4 (pen resistant); assay: MIC against veterinary bacteria; conditions: Staphylococcus aureus
M. hyorhinis ATCC 23234 = assay: Anti-mycoplasma MIC; assay type: cell-based; conditions: Mesomycoplasma hyorhinis, ATCC23234; M. hyorhinis ATCC 23234; Agar (serial dilution in Friis' agar); read-out: MIC
[2] = system: M. suipneumoniae J2206/183b; assay: Anti-mycoplasma MIC; assay type: cell-based; conditions: Mesomycoplasma hyopneumoniae
Past. multocida PA2 = assay: MIC against veterinary bacteria; conditions: Pasteurella multocida
Past. multocida PA1 = assay: MIC against veterinary bacteria; conditions: Pasteurella multocida
Strep. uberis SPU1 = assay: MIC against veterinary bacteria; conditions: Streptococcus uberis
M. synoviae ATCC 25204 = assay: Anti-mycoplasma MIC; assay type: cell-based; conditions: Mycoplasmopsis synoviae, ATCC25204; M. synoviae ATCC 25204; Agar (serial dilution in Friis' agar); read-out: MIC
M. dispar NCTC 10125 = assay: Anti-mycoplasma MIC; assay type: cell-based; conditions: M. dispar NCTC 10125; Broth (Friis' broth, microtiter method); read-out: MIC
[3] = system: M. hyosynoviae ATCC 25591; assay: Anti-mycoplasma MIC; assay type: cell-based; conditions: M. hyosynoviae ATCC 25591; Agar (serial dilution in Friis' agar); read-out: MIC
H. influenzae Wy21 = assay: MIC by serial dilution in nutrient agar (human bacteria); conditions: Haemophilus influenzae
M. suipneumoniae Str. 11 = assay: Anti-mycoplasma MIC; assay type: cell-based; conditions: Mesomycoplasma hyopneumoniae; M. suipneumoniae Str. 11; Broth (Friis' broth, microtiter method); read-out: MIC
Staph. aureus Russell = assay: MIC by serial dilution in nutrient agar (human bacteria); conditions: Staphylococcus aureus
H. influenzae Q1 = assay: as above; conditions: Haemophilus influenzae
Bord. bronchiseptica BO9 = assay: MIC against veterinary bacteria; conditions: Bordetella bronchiseptica
Strep. dysgalactiae SPD1 = assay: MIC against veterinary bacteria; conditions: Streptococcus dysgalactiae
Past. multocida 1633 = assay: MIC by serial dilution in nutrient agar (human bacteria); conditions: Pasteurella multocida
M. pneumoniae 427a = assay: Anti-mycoplasma MIC; assay type: cell-based; conditions: Mycoplasmoides pneumoniae, read-out: MIC
M. pulmonis JB = assay: Anti-mycoplasma MIC; assay type: cell-based; conditions: Mycoplasmopsis pulmonis, read-out: MIC
Strep. pyogenes B 2788 = assay: MIC by serial dilution in nutrient agar (human bacteria); conditions: Streptococcus pyogenes, B2788
M. gallisepticum S6 = assay: Anti-mycoplasma MIC; assay type: cell-based; conditions: Mycoplasmoides gallisepticum; M. gallisepticum S6; Agar (serial dilution in Friis' agar); read-out: MIC
M. bovis ATCC 25025 = assay: microbe, parasite or virus in culture; assay type: cell-based; conditions: ATCC25025
M. bovis NCTC 10131 = assay: microbe, parasite or virus in culture; assay type: cell-based; conditions: NCTC10131
M. dispar H225 = assay: Anti-mycoplasma MIC; assay type: cell-based; conditions: M. dispar H225; Broth (Friis' broth, microtiter method); read-out: MIC
[4] = system: M. bovigenitalium ATCC 14173; assay: Anti-mycoplasma MIC; assay type: cell-based; conditions: M. bovigenitalium ATCC 14173; Agar (serial dilution in Friis' agar); read-out: MIC
[5] = system: M. alkalescens NCTC 10135; assay: Anti-mycoplasma MIC; assay type: cell-based; conditions: M. alkalescens NCTC 10135; Agar (serial dilution in Friis' agar); read-out: MIC
M. pneumoniae ATCC 15492 = assay: Anti-mycoplasma MIC; assay type: cell-based; conditions: Mycoplasmoides pneumoniae, ATCC15492, M. pneumoniae ATCC 15492, read-out: MIC
[6] = system: M. arthritidis ATCC 14124; assay: Anti-mycoplasma MIC; assay type: cell-based; conditions: M. arthritidis ATCC 14124; Agar (serial dilution in Friis' agar); read-out: MIC
Strep. agalactiae SPA1 = assay: MIC against veterinary bacteria; conditions: Streptococcus agalactiae
B. subtilis = assay: MIC by serial dilution in nutrient agar (human bacteria); conditions: Bacillus subtilis
Staph. aureus Oxford = assay: as above; conditions: Staphylococcus aureus
Bord. bronchiseptica BO8 = assay: MIC against veterinary bacteria; conditions: Bordetella bronchiseptica
Strep. pyogenes C 2761 = assay: MIC by serial dilution in nutrient agar (human bacteria); conditions: Streptococcus pyogenes, C2761
[7] = system: Staph. aureus 152 (pen sensitive); assay: MIC against veterinary bacteria; conditions: Staphylococcus aureus
Strep. pyogenes A 64/848 = assay: MIC by serial dilution in nutrient agar (human bacteria); conditions: Streptococcus pyogenes, A64/848
Past. haemolytica PA5 = assay: MIC against veterinary bacteria; conditions: Mannheimia haemolytica
Strep. pneumoniae CN33 = assay: MIC by serial dilution in nutrient agar (human bacteria); conditions: Streptococcus pneumoniae
N. catarrhalis 1502 = assay: as above; conditions: Neisseria
[8] = Agar (serial dilution in Friis' agar)
[9] = Broth (Friis' broth, microtiter method)

C/C(=C\C(=O)OCCCCCCO)CC1OCC(C/C=C/C(C)C(C)O)C(O)C1O (stereo not drawn) [6-Hydroxyhexyl, 6-Hydroxyhexyl Monate C]
MIC (M. fermentans MWKL4; [8]): 0.078 µg/mL (≈ 0.182 µM) | MIC (M. fermentans MWKL4; [9]): < 0.02 µg/mL | MIC [1]: 1.25 µg/mL (≈ 2.92 µM) | MIC (M. hyorhinis ATCC 23234): 1.25 µg/mL (≈ 2.92 µM) | MIC ([2]; J2206/183B): 1.25 µg/mL (≈ 2.92 µM) | MIC (Past. multocida PA2): 2.5 µg/mL (≈ 5.83 µM) | MIC (Past. multocida PA1): 2.5 µg/mL (≈ 5.83 µM) | MIC (Strep. uberis SPU1): 0.312 µg/mL (≈ 0.728 µM) | MIC (M. synoviae ATCC 25204): < 0.02 µg/mL | MIC (M. dispar NCTC 10125): 0.156 µg/mL (≈ 0.364 µM) | MIC [3]: 0.078 µg/mL (≈ 0.182 µM) | MIC (H. influenzae Wy21): 0.2 µg/mL (≈ 0.467 µM) | MIC (M. suipneumoniae Str. 11): 0.625 µg/mL (≈ 1.46 µM) | MIC (Staph. aureus Russell): 1 µg/mL (≈ 2.33 µM) | MIC (H. influenzae Q1): 0.2 µg/mL (≈ 0.467 µM) | MIC (Bord. bronchiseptica BO9): 5 µg/mL (≈ 11.7 µM) | MIC (Strep. dysgalactiae SPD1): 1.25 µg/mL (≈ 2.92 µM) | MIC (Past. multocida 1633): 1 µg/mL (≈ 2.33 µM) | MIC (M. pneumoniae 427a; [8]): 1.25 µg/mL (≈ 2.92 µM) | MIC (M. pneumoniae 427a; [9]): 0.625 µg/mL (≈ 1.46 µM) | MIC (M. pulmonis JB; [8]): 0.039 µg/mL (≈ 0.091 µM) | MIC (M. pulmonis JB; [9]): < 0.02 µg/mL | MIC (Strep. pyogenes B 2788): 5 µg/mL (≈ 11.7 µM) | MIC (M. gallisepticum S6): 10 µg/mL (≈ 23.3 µM) | MIC (M. bovis ATCC 25025): < 0.02 µg/mL | MIC (M. bovis NCTC 10131): < 0.02 µg/mL | MIC (M. dispar H225): 0.156 µg/mL (≈ 0.364 µM) | MIC [4]: 0.039 µg/mL (≈ 0.091 µM) | MIC [5]: < 0.02 µg/mL | MIC (M. pneumoniae ATCC 15492; [8]): 1.25 µg/mL (≈ 2.92 µM) | MIC (M. pneumoniae ATCC 15492; [9]): 0.625 µg/mL (≈ 1.46 µM) | MIC [6]: 5 µg/mL (≈ 11.7 µM) | MIC (Strep. agalactiae SPA1): 5 µg/mL (≈ 11.7 µM) | MIC (B. subtilis): 0.5 µg/mL (≈ 1.17 µM) | MIC (Staph. aureus Oxford): 0.2 µg/mL (≈ 0.467 µM) | MIC (Bord. bronchiseptica BO8): > 80 µg/mL | MIC (Strep. pyogenes C 2761): 5 µg/mL (≈ 11.7 µM) | MIC [7]: 1.25 µg/mL (≈ 2.92 µM) | MIC (Strep. pyogenes A 64/848): 1 µg/mL (≈ 2.33 µM) | MIC (Past. haemolytica PA5): 40 µg/mL (≈ 93.3 µM)

C=CCOC(=O)/C=C(\C)CC1OCC(C/C=C/C(C)C(C)O)C(O)C1O (stereo not drawn) [Allyl, Allyl Monate C]
MIC (M. fermentans MWKL4; [8]): 0.156 µg/mL (≈ 0.423 µM) | MIC (M. fermentans MWKL4; [9]): 0.039 µg/mL (≈ 0.106 µM) | MIC [1]: 0.625 µg/mL (≈ 1.7 µM) | MIC (M. hyorhinis ATCC 23234): 2.5 µg/mL (≈ 6.78 µM) | MIC ([2]; M. suipneumoniae J2206/183b, Broth (Friis' broth, microtiter method), read-out: MIC): 1.25 µg/mL (≈ 3.39 µM) | MIC (Past. multocida PA2): 0.312 µg/mL (≈ 0.847 µM) | MIC (Past. multocida PA1): 2.5 µg/mL (≈ 6.78 µM) | MIC (Strep. uberis SPU1): 1.25 µg/mL (≈ 3.39 µM) | MIC (M. synoviae ATCC 25204): 0.039 µg/mL (≈ 0.106 µM) | MIC (M. dispar NCTC 10125): 0.156 µg/mL (≈ 0.423 µM) | MIC [3]: 1.25 µg/mL (≈ 3.39 µM) | MIC (M. suipneumoniae Str. 11): 0.312 µg/mL (≈ 0.847 µM) | MIC (Strep. pneumoniae CN33): 2.5 µg/mL (≈ 6.78 µM) | MIC (Staph. aureus Russell): 1 µg/mL (≈ 2.71 µM) | MIC (H. influenzae Q1): 0.5 µg/mL (≈ 1.36 µM) | MIC (Bord. bronchiseptica BO9): 40 µg/mL (≈ 109 µM) | MIC (Strep. dysgalactiae SPD1): 5 µg/mL (≈ 13.6 µM) | MIC (Past. multocida 1633): 2.5 µg/mL (≈ 6.78 µM) | MIC (M. pneumoniae 427a; [8]): 5 µg/mL (≈ 13.6 µM) | MIC (M. pneumoniae 427a; [9]): 10 µg/mL (≈ 27.1 µM) | MIC (M. pulmonis JB; [8]): 0.156 µg/mL (≈ 0.423 µM) | MIC (M. pulmonis JB; [9]): 0.039 µg/mL (≈ 0.106 µM) | MIC (Strep. pyogenes B 2788): 2.5 µg/mL (≈ 6.78 µM) | MIC (M. gallisepticum S6): > 10 µg/mL | MIC (M. bovis ATCC 25025): 0.078 µg/mL (≈ 0.212 µM) | MIC (M. bovis NCTC 10131): 0.078 µg/mL (≈ 0.212 µM) | MIC (M. dispar H225): 0.078 µg/mL (≈ 0.212 µM) | MIC [4]: 0.078 µg/mL (≈ 0.212 µM) | MIC [5]: 0.078 µg/mL (≈ 0.212 µM) | MIC (M. pneumoniae ATCC 15492; [8]): 10 µg/mL (≈ 27.1 µM) | MIC (M. pneumoniae ATCC 15492; [9]): 10 µg/mL (≈ 27.1 µM) | MIC [6]: > 10 µg/mL | MIC (Strep. agalactiae SPA1): 5 µg/mL (≈ 13.6 µM) | MIC (N. catarrhalis 1502): 0.05 µg/mL (≈ 0.136 µM) | MIC (B. subtilis): 1 µg/mL (≈ 2.71 µM) | MIC (Staph. aureus Oxford): 0.1 µg/mL (≈ 0.271 µM) | MIC (Bord. bronchiseptica BO8): > 80 µg/mL | MIC (Strep. pyogenes C 2761): 10 µg/mL (≈ 27.1 µM) | MIC [7]: 0.625 µg/mL (≈ 1.7 µM) | MIC (Strep. pyogenes A 64/848): 2.5 µg/mL (≈ 6.78 µM) | MIC (Past. haemolytica PA5): 20 µg/mL (≈ 54.3 µM)
